From US8575158B2, “1-phenyl-substituted heterocyclyl derivatives and their use as prostaglandin D2 receptor modulators” (Actelion Pharmaceuticals Ltd., priority 2010, dated 2013)

Biological target: T1, hCRTH2 receptor (Homo sapiens, UniProt Q9Y5Y4)
T1 construct: expressed in transfected cells; host or cells: HEK293
T1 sequence (Q9Y5Y4 1-395): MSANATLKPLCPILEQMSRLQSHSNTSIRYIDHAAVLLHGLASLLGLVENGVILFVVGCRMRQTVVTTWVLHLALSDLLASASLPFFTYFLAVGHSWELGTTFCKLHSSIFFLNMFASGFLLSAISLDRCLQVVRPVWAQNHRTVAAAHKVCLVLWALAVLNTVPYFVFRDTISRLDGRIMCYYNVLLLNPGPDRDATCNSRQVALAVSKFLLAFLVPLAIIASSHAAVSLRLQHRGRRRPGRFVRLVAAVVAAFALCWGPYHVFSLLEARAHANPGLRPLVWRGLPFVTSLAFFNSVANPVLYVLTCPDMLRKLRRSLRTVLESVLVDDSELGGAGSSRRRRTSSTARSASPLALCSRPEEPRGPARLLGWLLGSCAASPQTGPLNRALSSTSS
Assay: Radioligand displacement assay (3H-PGD2) on hCRTH2 receptor membranes
Format: binding
Settings: antagonistic activity
Description: First, recombinant HEK293-hCRTH2 cells were detached from culture plates into 5 ml buffer A/plate (Buffer A: 5 mM Tris, 1 mM MgCl2-6H2O pH=7.4) using a rubber policeman. Cells were then transferred into centrifugation tubes and centrifuged for 5 min at 400 g. The cell pellet was resuspended in the same buffer and tubes were frozen at −80° C. Cells were thawed and membrane fragments were generated by homogenization using a polytron homogenizer (30 seconds). The membrane fragments were then centrifuged at 3000 g for 20 minutes and resuspended in buffer C (Buffer C: 75 mM Tris, 25 mM MgCl2, 250 mM Saccharose pH 7.4). Aliquots of membrane fragments were stored at −20° C.
Binding assay was performed in a final assay volume of 250 μl. First, 25 μl of test compound, previously diluted in Binding-Buffer (Binding-Buffer: 50 mM Tris-Base, 100 mM NaCl, 1 mM EDTA, 0.1% BSA (protease free), 0.01% NaN3, 10 mM MnCl2, pH 7.0) was placed into each well. After addition of 75 μl Binding-Buffer, 50 μl of the radioligand ^3H-PGD2 (at 2.5 nM (220.000 dpm/well) from ANAWA ART0662) was added to each well. Binding assay was started by addition of 100 μl CRTH2 membrane fragments, reaching a final concentration of 20 μg/well. For non-specific binding, PGD2 was added to the reaction mixture to […] final concentration.
This assay mix was incubated for 90 minutes at room temperature and then filtered through a GF/C filter 96-well plate which was pre-soaked for 3 hours in 0.5% polyethyleneimine (PEI). The filter-wells were washed three times with ice cold Binding-Buffer. Then, 40 μl of Microscint-40 (Packard) was added to each well and the retained radioactivity quantified in a Topcount (Packard).

[1] = 3H-PGD2 radioligand displacement, HEK293-hCRTH2 membranes
[2] = 3H-PGD2 displacement on HEK293-hCRTH2 membrane fragments

SMILES	IC50 [1]	IC50 [2]	also measured
O=C(O)COc1ccc(Cl)cc1[C@@H]1c2ccccc2CCN1C(=O)[C@H]1C[C@@H]1c1ccccc1C(F)(F)F [Example 563, (4-Chloro-2-{(S)-2-[(1S,2S)-2-(2-trifluoromethyl-phenyl)-cyclopropanecarbonyl]-1,2,3,4-tetrahydro-isoquinolin-1-yl}-phenoxy)-acetic acid]	–	–	IC50 (radioligand displacement (3H-PGD2), hCRTH2 receptor membranes): 264 nM
O=C(O)COc1ccc(Cl)cc1C1c2ccccc2CN1C(=O)CCOc1ccccc1F (racemic) [Example 522]	11.7 nM	–	–
O=C(O)COc1ccc(Cl)cc1C1c2ccc(F)cc2CN1C(=O)OCc1ccccc1 (racemic) [Example 500]	12.9 nM	–	–
Cc1nn(CCC(=O)N2Cc3ccccc3C2c2cc(Cl)ccc2OCC(=O)O)c2c(F)cccc12 (single isomer, unassigned) [Example 530]	101 nM	–	–
Cc1ccc([C@@H]2C[C@H]2C(=O)N2CCc3ccccc3C2c2cc(Cl)ccc2OCC(=O)O)cc1 (mixture of isomers) [Example 420]	103 nM	–	–
O=C(O)COc1ccccc1C1c2ccccc2CCN1C(=O)OCc1ccccc1 (racemic) [Example 366]	41.5 nM	–	–
O=C(O)COc1ccc(Cl)cc1C1c2ccccc2CCN1C(=O)CCCc1cccc(Cl)c1Cl (racemic) [Example 109, (±)-(4-Chloro-2-{2-[4-(2,3-dichloro-phenyl)-butyryl]-1,2,3,4-tetrahydro-isoquinolin-1-yl}-phenoxy)-acetic acid]	–	16.9 nM	–
O=C(O)COc1ccc(Cl)cc1C1c2ccccc2CCN1C(=O)COc1ccc(Cl)cc1 (racemic) [Example 412]	40.2 nM	–	–
O=C(O)COc1ccc(F)cc1C1c2ccccc2CCN1C(=O)COCc1ccc(Cl)cc1 (racemic) [Example 191]	–	33.3 nM	–
Cc1cc(COC(=O)N2CCc3ccccc3[C@H]2c2cc(Cl)ccc2OCC(=O)O)n(C)n1 [Example 288, (S)-1-(2-Carboxymethoxy-5-chloro-phenyl)-3,4-dihydro-1H-isoquinoline-2-carboxylic acid 2,5-dimethyl-2H-pyrazol-3-ylmethyl ester]	0.41 nM	–	–
O=C(O)COc1ccc(Cl)cc1C1c2ccccc2CN1C(=O)CCn1ncc2cccc(F)c21 (single isomer, unassigned) [Example 551, (4-Chloro-2-{2-[3-(7-fluoro-indazol-1-yl)-propionyl]-2,3-dihydro-1H-isoindol-1-yl}-phenoxy)-acetic acid]	292 nM	–	–
O=C(O)COc1ccc(Cl)cc1[C@@H]1c2ccccc2CCN1C(=O)OCc1ccccc1 [Example 26, (S)-1-(2-Carboxymethoxy-5-chloro-phenyl)-3,4-dihydro-1H-isoquinoline-2-carboxylic acid benzyl ester]	–	4.52 nM	–
O=C(O)COc1ccc(Cl)cc1C1c2ccccc2CN1C(=O)Cn1ccc2ccccc21 (racemic) [Example 507]	129 nM	–	–
O=C(O)COc1ccc(F)cc1C1c2ccccc2CCN1C(=O)Cc1cccc2ccccc12 (racemic) [Example 47, (±)-{4-Fluoro-2-[2-(2-naphthalen-1-yl-acetyl)-1,2,3,4-tetrahydro-isoquinolin-1-yl]-phenoxy}-acetic acid]	–	198 nM	–
COc1ccccc1CNC(=S)N1CCc2ccccc2C1c1cc(Cl)ccc1OCC(=O)O (racemic) [Example 225, (±)-{4-Chloro-2-[2-(2-methoxy-benzylthiocarbamoyl)-1,2,3,4-tetrahydro-isoquinolin-1-yl]-phenoxy}-acetic acid]	–	76.5 nM	–
Cc1ccccc1CCC(=O)N1CCc2c(F)cccc2C1c1cc(Cl)ccc1OCC(=O)O (racemic) [Example 118, (±)-{4-Chloro-2-[5-fluoro-2-(3-o-tolyl-propionyl)-1,2,3,4-tetrahydro-isoquinolin-1-yl]-phenoxy}-acetic acid]	–	95.4 nM	–
O=C(O)COc1ccc(F)cc1C1c2cc(-c3ccc(F)cc3)ccc2CCN1C(=O)OCc1ccccc1 (racemic) [Example 497]	793 nM	–	–
CCCCOC(=O)N1CCc2ccccc2C1c1cc(Cl)ccc1OCC(=O)O (racemic) [Example 266]	–	24.5 nM	–

SMILES	IC50 [1]	IC50 [2]	also measured
O=C(O)COc1ccc(F)cc1C1c2ccccc2CCN1C(=O)OCc1ccccc1 (racemic) [Example 1, (±)-1-(2-Carboxymethoxy-5-fluoro-phenyl)-3,4-dihydro-1H-isoquinoline-2-carboxylic acid benzyl ester]	–	7.6 nM	–
O=C(O)COc1ccc(-n2nccn2)cc1C1c2ccccc2CCN1C(=O)OCc1ccccc1 (racemic) [Example 224, (±)-1-(2-Carboxymethoxy-5-[1,2, 3]triazol-2-yl-phenyl)-3,4-dihydro-1H-isoquinoline-2-carboxylic acid benzyl ester]	–	12.7 nM	–
O=C(O)COc1ccc(Cl)cc1C1c2ccccc2CCN1C(=O)NCc1ccccc1F (racemic) [Example 495]	24.1 nM	–	–
O=C(O)COc1ccc(Cl)cc1C1c2ccccc2CCN1C(=O)OCc1cc(Cl)ccc1Cl (racemic) [Example 253]	–	6.52 nM	–
O=C(O)COc1ccc(Cl)cc1[C@@H]1c2ccccc2CCN1C(=O)OCn1ncc2ccccc21 [Example 297, (S)-1-(2-Carboxymethoxy-5-chloro-phenyl)-3,4-dihydro-1H-isoquinoline-2-carboxylic acid indazol-1-ylmethyl ester]	1.06 nM	–	–
O=C(O)COc1ccc(F)cc1C1c2ccccc2CCN1C(=O)COc1ccccc1F (racemic) [Example 148, (±)-(4-Fluoro-2-{2-[2-(2-fluoro-phenoxy)-acetyl]-1,2,3,4-tetrahydro-isoquinolin-1-yl}-phenoxy)-acetic acid]	–	132 nM	–
O=C(O)COc1ccc(Cl)cc1C1c2ccccc2CCN1C(=O)CCn1ccc2ccccc21 (racemic) [Example 378]	11.6 nM	–	–
O=C(O)COc1ccc(Cl)cc1C1c2ccccc2CCN1C(=O)CCc1cccc(C(F)(F)F)c1 (racemic) [Example 81, (±)-(4-Chloro-2-{2-[3-(3-trifluoromethyl-phenyl)-propionyl]-1,2,3,4-tetrahydro-isoquinolin-1-yl}-phenoxy)-acetic acid]	–	27.5 nM	–
O=C(O)COc1ccc(Cl)cc1C1c2ccccc2CCN1C(=O)OCc1ccccc1Br (racemic) [Example 227]	–	7.21 nM	–
Cn1cc(CC(=O)N2CCc3ccccc3C2c2cc(F)ccc2OCC(=O)O)c2ccccc21 (racemic) [Example 137, (±)-(4-Fluoro-2-{2-[2-(1-methyl-1H-indol-3-yl)-acetyl]-1,2,3,4-tetrahydro-isoquinolin-1-yl}-phenoxy)-acetic acid]	–	314 nM	–
O=C(O)COc1ccc(Cl)cc1[C@@H]1c2ccc(F)cc2CCN1C(=O)CCn1ncc2ccc(Cl)cc21 [Example 401, (4-Chloro-2-{(S)-2-[3-(6-chloro-indazol-1-yl)-propionyl]-6-fluoro-1,2,3,4-tetrahydro-isoquinolin-1-yl}-phenoxy)-acetic acid]	46.9 nM	–	–
O=C(O)COc1ccc(Cl)cc1C1c2ccccc2CCN1C(=O)CCOc1cccc(F)c1 (racemic) [Example 87, (±)-(4-Chloro-2-{2-[3-(3-fluoro-phenoxy)-propionyl]-1,2,3,4-tetrahydro-isoquinolin-1-yl}-phenoxy)-acetic acid]	–	17.8 nM	–
CN(CC(=O)N1CCc2ccccc2C1c1cc(F)ccc1OCC(=O)O)S(=O)(=O)c1ccccc1 (racemic) [Example 210]	–	423 nM	–
O=C(O)COc1ccc(Cl)cc1C1c2ccccc2CCN1C(=O)CCn1ccc2ccc(Cl)cc21 (racemic) [Example 386]	11.6 nM	–	–
O=C(O)COc1ccc(Cl)cc1C1c2ccccc2CCN1C(=O)OCc1c(F)cccc1F (racemic) [Example 250]	–	6.84 nM	–
C[C@H](Oc1ccc(F)cc1[C@@H]1c2ccccc2CCN1C(=O)OCc1ccccc1)C(=O)O [Example 28, (S)-1-[2-((S)-1-Carboxy-ethoxy)-5-fluoro-phenyl]-3,4-dihydro-1H-isoquinoline-2-carboxylic acid benzyl ester]	–	443 nM	–
O=C(O)COc1ccc(Cl)cc1C1c2ccc(F)cc2CN1C(=O)CCn1ncc2ccccc21 (racemic) [Example 526, (±)-{4-Chloro-2-[5-fluoro-2-(3-indazol-1-yl-propionyl)-2,3-dihydro-1H-isoindol-1-yl]-phenoxy}-acetic acid]	4.53 nM	–	–
O=C(O)COc1ccc(F)cc1C1c2ccccc2CCN1C(=O)CNS(=O)(=O)c1ccccc1F (racemic) [Example 208]	–	983 nM	–
